Data from patent publication US20250230193A1, “CYCLIC COMPOUND HAVING SELECTIVE KRAS INHIBITORY EFFECT ON HRAS AND NRAS” (CHUGAI SEIYAKU KABUSHIKI KAISHA, priority 2022, published 2025).
*1 amine or outer side, *2 acyl side, *3 side chain or, on linkers, in order; H or OH if unused. Where a SMILES comes first, the peptide text is derived from it. Bridges are numbered along the chain shown (N, C = ends). [ ]: non-standard residue; d: D form. The star is where a group is joined. hPhe(3-Cl-4-CF3) = N[C@@H](CCc1ccc(C(F)(F)F)c(Cl)c1)C(=O)O; X47 = O=C([C@H](Cc1ccc(C(F)(F)F)cc1)N(CCCF)[*:1])[*:2]; X20 = CCCN([C@@H](CC1CCC(F)(F)CC1)C(=O)[*:2])[*:1]; NMeGly(cPent) = CN[C@H](C(=O)O)C1CCCC1; NMeD = CN[C@@H](CC(=O)O)C(=O)O; NMeL = CN[C@@H](CC(C)C)C(=O)O; Morpholide = C1CN(*)CCO1; NMeA = CN[C@@H](C)C(=O)O; Ac5c = NC1(C(=O)O)CCCC1; Aze = O=C(O)[C@@H]1CCN1; Sar = CNCC(=O)O

Assays:
[1] = target: GDP-bound HRAS wild-type protein (Homo sapiens, UniProt P01112); test: Binding to HRAS by surface plasmon resonance (SPR), Single Cycle Kinetics; conditions: KD ratio HRAS/KRAS, SPR
GDP-bound HRAS wild-type protein, sequence (P01112 whole entry): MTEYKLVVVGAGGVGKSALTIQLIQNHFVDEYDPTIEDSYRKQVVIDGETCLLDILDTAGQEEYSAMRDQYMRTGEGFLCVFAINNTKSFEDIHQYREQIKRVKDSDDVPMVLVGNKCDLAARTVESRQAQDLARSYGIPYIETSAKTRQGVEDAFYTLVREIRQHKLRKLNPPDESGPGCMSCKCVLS

[2] = target: GDP-bound NRAS wild-type protein (Homo sapiens, UniProt P01111); test: Binding to NRAS by surface plasmon resonance (SPR), Single Cycle Kinetics; conditions: KD ratio NRAS/KRAS, SPR
GDP-bound NRAS wild-type protein, sequence (P01111 whole entry): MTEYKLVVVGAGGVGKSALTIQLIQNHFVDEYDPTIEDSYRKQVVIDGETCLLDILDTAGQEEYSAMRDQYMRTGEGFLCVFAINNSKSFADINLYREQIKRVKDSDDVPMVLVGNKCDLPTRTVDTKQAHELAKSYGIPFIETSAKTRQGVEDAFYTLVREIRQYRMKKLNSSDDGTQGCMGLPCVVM

SMILES | HRAS/KRAS (ratio of KD value with respect to GDP-bound HRAS wild-type protein to KD value with respect to KRAS) [1] | NRAS/KRAS (ratio of KD value with respect to GDP-bound NRAS wild-type protein to KD value with respect to KRAS) [2]
CC[C@H](C)[C@@H]1NC(=O)[C@H](CC(C)C)N(CC)C(=O)C[C@@H](C(=O)N2CCOCC2)N(C)C(=O)[C@H](C2CCCC2)N(C)C(=O)C2(CCCC2)NC(=O)[C@@H]2CCCN2C(=O)[C@H](CCc2cc(F)c(C(F)(F)F)c(F)c2)NC(=O)CN(C)C(=O)[C@H](Cc2ccc(C(F)(F)F)cc2)N2CCCCC[C@@H](C2=O)N(C)C(=O)CN(C)C1=O [PP0513] | B (a compound having 3 or more and less than 10 is denoted as B) | B (a compound having 3 or more and less than 10 is denoted as B)
CC[C@H](C)[C@@H]1NC(=O)[C@H](CC(C)C)N(C)C(=O)C[C@@H](C(=O)N(C)C)N(C)C(=O)[C@H](C2CCCC2)N(C)C(=O)C2(CCCC2)NC(=O)[C@@H]2CCCN2C(=O)[C@H](CCc2cc(F)c(C(F)(F)F)c(F)c2)NC(=O)CN(C)C(=O)[C@H](Cc2ccc(C(F)(F)F)cc2)N2CCCCC[C@@H](C2=O)N(C)C(=O)CN(CC)C1=O [PP0514] | B (a compound having 3 or more and less than 10 is denoted as B) | B (a compound having 3 or more and less than 10 is denoted as B)
CC[C@H](C)[C@@H]1NC(=O)[C@H](CC(C)C)N(C)C(=O)C[C@@H](C(=O)N2CCOCC2)N(C)C(=O)[C@H](C2CCCC2)N(C)C(=O)C2(CCCC2)NC(=O)[C@H](C)N(CC)C(=O)[C@H](CCc2cc(F)c(C(F)(F)F)c(F)c2)NC(=O)CN(C)C(=O)[C@H](Cc2ccc(C(F)(F)F)cc2)N2CCCCC[C@@H](C2=O)N(C)C(=O)CN(C)C1=O [PP0515] | B (a compound having 3 or more and less than 10 is denoted as B) | B (a compound having 3 or more and less than 10 is denoted as B)
CC[C@H](C)[C@@H]1NC(=O)[C@H](CC(C)C)NC(=O)C[C@@H](C(=O)N2CCOCC2)N(C)C(=O)[C@H](C2CCCC2)N(C)C(=O)C2(CCCC2)NC(=O)[C@@H]2CCCN2C(=O)[C@H](CCc2cc(F)c(C(F)(F)F)c(F)c2)NC(=O)CN(C)C(=O)[C@H](Cc2ccc(C(F)(F)F)cc2)N2CCCCC[C@@H](C2=O)N(C)C(=O)CN(C)C1=O [PP0516] | B (a compound having 3 or more and less than 10 is denoted as B) | B (a compound having 3 or more and less than 10 is denoted as B)
CC[C@H](C)[C@@H]1NC(=O)[C@H](CC(F)(F)F)N(C)C(=O)C[C@@H](C(=O)N2CCOCC2)N(C)C(=O)[C@H](C2CCCC2)N(C)C(=O)C2(CCCC2)NC(=O)[C@@H]2CCCN2C(=O)[C@H](CCc2cc(F)c(C(F)(F)F)c(F)c2)NC(=O)CN(C)C(=O)[C@H](Cc2ccc(C(F)(F)F)cc2)N2CCCCC[C@@H](C2=O)N(C)C(=O)CN(C)C1=O [PP0520] | B (a compound having 3 or more and less than 10 is denoted as B) | B (a compound having 3 or more and less than 10 is denoted as B)
CC[C@H](C)[C@@H]1NC(=O)[C@@H]2CCCCCN2C(=O)C[C@@H](C(=O)N2CCOCC2)N(C)C(=O)[C@H](C2CCCC2)N(C)C(=O)C2(CCCC2)NC(=O)[C@@H]2CCCN2C(=O)[C@H](CCc2cc(F)c(C(F)(F)F)c(F)c2)NC(=O)CN(C)C(=O)[C@H](Cc2ccc(C(F)(F)F)cc2)N2CCCCC[C@@H](C2=O)N(C)C(=O)CN(C)C1=O [PP0521] | B (a compound having 3 or more and less than 10 is denoted as B) | B (a compound having 3 or more and less than 10 is denoted as B)
CC(C)C[C@H]1C(=O)N[C@@H](C2CCC2)C(=O)N(C)CC(=O)N(C)[C@H]2CCCCCN(C2=O)[C@@H](Cc2ccc(C(F)(F)F)cc2)C(=O)N(C)CC(=O)N[C@@H](CCc2cc(F)c(C(F)(F)F)c(F)c2)C(=O)N2CCC[C@H]2C(=O)NC2(CCCC2)C(=O)N(C)[C@@H](C2CCCC2)C(=O)N(C)[C@H](C(=O)N2CCOCC2)CC(=O)N1C [PP0522] | B (a compound having 3 or more and less than 10 is denoted as B) | B (a compound having 3 or more and less than 10 is denoted as B)
CCC(CC)[C@@H]1NC(=O)[C@H](CC(C)C)N(C)C(=O)C[C@@H](C(=O)N2CCOCC2)N(C)C(=O)[C@H](C2CCCC2)N(C)C(=O)C2(CCCC2)NC(=O)[C@@H]2CCCN2C(=O)[C@H](CCc2cc(F)c(C(F)(F)F)c(F)c2)NC(=O)CN(C)C(=O)[C@H](Cc2ccc(C(F)(F)F)cc2)N2CCCCC[C@@H](C2=O)N(C)C(=O)CN(C)C1=O [PP0523] | B (a compound having 3 or more and less than 10 is denoted as B) | A (a compound having 10 or more and less than 20 is denoted as A)
CC[C@H](C)[C@@H]1NC(=O)[C@H](CC(C)C)N(C)C(=O)C[C@@H](C(=O)N2CCOCC2)N(C)C(=O)[C@H](C2CCCC2)N(C)C(=O)C2(CCCC2)NC(=O)[C@@H]2CCCN2C(=O)[C@H](CCc2ccc(C(F)(F)F)c(Cl)c2)NC(=O)CN(C)C(=O)[C@H](Cc2ccc(C(F)(F)F)cc2)N(CCCF)C(=O)CN(C)C(=O)CN(C)C1=O [PP0524] ([NMeL]I[Sar][Sar][X47][Sar][hPhe(3-Cl-4-CF3)]P[Ac5c][NMeGly(cPent)][NMeD]-Morpholide; lactam N-11) | C (A compound having a KD ratio of 0.1 or more and less than 3 is denoted as C) | B (a compound having 3 or more and less than 10 is denoted as B)
CC[C@H](C)[C@@H]1NC(=O)[C@H](CC(C)C)N(C)C(=O)C[C@@H](C(=O)N2CCOCC2)N(C)C(=O)[C@H](C2CCCC2)N(C)C(=O)C2(CCCC2)NC(=O)[C@@H]2CCCN2C(=O)[C@H](CCc2ccc(C(F)(F)F)c(Cl)c2)NC(=O)CN(C)C(=O)[C@H](Cc2ccc(C(F)(F)F)cc2)N(CCCF)C(=O)[C@@H]2CCN2C(=O)[C@H](C)N(C)C1=O [PP0525] ([NMeL]I[NMeA][Aze][X47][Sar][hPhe(3-Cl-4-CF3)]P[Ac5c][NMeGly(cPent)][NMeD]-Morpholide; lactam N-11) | B (a compound having 3 or more and less than 10 is denoted as B) | C (A compound having a KD ratio of 0.1 or more and less than 3 is denoted as C)
CCCN1C(=O)CN(C)C(=O)CN(C)C(=O)[C@H]([C@@H](C)CC)NC(=O)[C@H](CC(C)C)N(C)C(=O)C[C@@H](C(=O)N2CCOCC2)N(C)C(=O)[C@H](C2CCCC2)N(C)C(=O)C2(CCCC2)NC(=O)[C@@H]2CCCN2C(=O)[C@H](CCc2ccc(C(F)(F)F)c(Cl)c2)NC(=O)CN(C)C(=O)[C@@H]1CC1CCC(F)(F)CC1 [PP0526] ([NMeL]I[Sar][Sar][X20][Sar][hPhe(3-Cl-4-CF3)]P[Ac5c][NMeGly(cPent)][NMeD]-Morpholide; lactam N-11) | C (A compound having a KD ratio of 0.1 or more and less than 3 is denoted as C) | B (a compound having 3 or more and less than 10 is denoted as B)
CCCN1C(=O)[C@@H]2CCN2C(=O)[C@H](C)N(C)C(=O)[C@H]([C@@H](C)CC)NC(=O)[C@H](CC(C)C)N(C)C(=O)C[C@@H](C(=O)N2CCOCC2)N(C)C(=O)[C@H](C2CCCC2)N(C)C(=O)C2(CCCC2)NC(=O)[C@@H]2CCCN2C(=O)[C@H](CCc2ccc(C(F)(F)F)c(Cl)c2)NC(=O)CN(C)C(=O)[C@@H]1CC1CCC(F)(F)CC1 [PP0527] ([NMeL]I[NMeA][Aze][X20][Sar][hPhe(3-Cl-4-CF3)]P[Ac5c][NMeGly(cPent)][NMeD]-Morpholide; lactam N-11) | C (A compound having a KD ratio of 0.1 or more and less than 3 is denoted as C) | C (A compound having a KD ratio of 0.1 or more and less than 3 is denoted as C)
CC[C@H](C)[C@@H]1NC(=O)[C@H](CC(C)C)N(C)C(=O)C[C@@H](C(=O)N2CCOCC2)N(C)C(=O)[C@H](C2CCCC2)N(C)C(=O)C2(CCCC2)NC(=O)[C@@H]2CCCN2C(=O)[C@H](CCc2ccc(C(F)(F)F)c(Cl)c2)NC(=O)CN(C)C(=O)[C@H](Cc2ccccc2)N2CC=CC[C@@H](C2=O)N(C)C(=O)CN(C)C1=O [PP0528] | C (A compound having a KD ratio of 0.1 or more and less than 3 is denoted as C) | C (A compound having a KD ratio of 0.1 or more and less than 3 is denoted as C)
CC[C@H](C)[C@@H]1NC(=O)[C@H](CC(C)C)N(C)C(=O)C[C@@H](C(=O)N2CCOCC2)N(C)C(=O)[C@H](C2CCCC2)N(C)C(=O)C2(CCCC2)NC(=O)[C@@H]2CCCN2C(=O)[C@H](CCc2ccc(C(F)(F)F)c(Cl)c2)NC(=O)CN(C)C(=O)[C@H](Cc2ccccc2)N2CCCC[C@@H](C2=O)N(C)C(=O)CN(C)C1=O [PP0529] | B (a compound having 3 or more and less than 10 is denoted as B) | C (A compound having a KD ratio of 0.1 or more and less than 3 is denoted as C)
